Measured values reported in ChEMBL document CHEMBL3797140, “Acridin-3,6-dialkyldithiourea hydrochlorides as new photosensitizers for photodynamic therapy of mouse leukemia cells” (Bioorg Med Chem, 2016).
Active and inactive are the calls of the source. No cut-off for these calls is given here.

How the values were obtained:
L1210 [1] = experiment: Phototoxicity against mouse L1210 cells assessed as cell viability preincubated with 0.5 nM bafilomycin A1 followed by compound exposure for 1 hr followed by 1.05 J/cm2 UV-A irradiation measured after 48 hrs by MTT assay in presence of pepstatin A; assay type: functional, cell-based
L1210 [2] = experiment: Induction of ROS generation in mouse L1210 cells at 0.5 uM preincubated for 1 hr followed by 1.05 J/cm2 UV-A irradiation by fluorescence microscopy in presence of trolox; assay type: functional, cell-based
[3] = Phototoxicity against mouse NIH/3T3 cells assessed as cell viability preincubated for 1 hr followed by 1.05 J/cm2 UV-A irradiation measured after 48 hrs by MTT assay; assay type: cell-based; settings: NIH3T3, light or radiation study
[4] = Drug uptake in plasma membrane of mouse L1210 cells at 1 uM after 1 to 6 hrs by fluorescence microscopy; assay type: ADME, cell-based; settings: l1210, 1 µM
[5] = Drug uptake in cytosol of mouse L1210 cells at 1 uM after 1 to 6 hrs by fluorescence microscopy; assay type: ADME, cell-based
L1210 [6] = experiment: Induction of apoptosis in mouse L1210 cells assessed as decrease in Bcl2 level at 0.5 uM preincubated for 1 hr measured after 8 hrs by Western blot method in absence of light; assay type: cell-based; settings: l1210, 8 h
L1210 [7] = experiment: Induction of cytomorphological changes in mouse L1210 cells assessed as cell shrinkage at 0.5 uM preincubated for 1 hr followed by 1.05 J/cm2 UV-A irradiation measured after 6 to 24 hrs by Hoechst 33342 staining-based fluorescence microscopy; assay type: functional
L1210 [8] = experiment: Induction of apoptosis in mouse L1210 cells assessed as caspase 9 activation at 1 uM preincubated for 1 hr followed by 1.05 J/cm2 UV-A irradiation measured after 4 to 6 hrs by Western blot method; assay type: functional, cell-based
L1210 [9] = experiment: Induction of apoptosis in mouse L1210 cells assessed as Bax level at 0.5 to 1 uM preincubated for 1 hr followed by 1.05 J/cm2 UV-A irradiation measured after 4 to 6 hrs by Western blot method; assay type: functional, cell-based
L1210 [10] = experiment: Phototoxicity against mouse L1210 cells assessed as cell viability preincubated for 1 hr followed by 1.05 J/cm2 UV-A irradiation measured after 48 hrs by MTT assay; assay type: functional, cell-based; settings: L1210, light or radiation study
L1210 [11] = experiment: Induction of autophagy in mouse L1210 cells assessed as accumulation of LC3BII at 0.5 to 1 uM preincubated for 1 hr followed by 1.05 J/cm2 UV-A irradiation measured after 4 to 6 hrs by Western blot method; assay type: functional, cell-based
L1210 [12] = experiment: Induction of cell cycle arrest in mouse L1210 cells assessed as accumulation at sub-G0 phase at 0.5 uM preincubated for 1 hr followed by 1.05 J/cm2 UV-A irradiation measured after 4 hrs by propidium iodide staining-based flow cytometry (reference value: 16.8 +/- 0.6%); assay type: functional
L1210 [13] = experiment: Induction of DNA fragmentation in mouse L1210 cells at 0.5 to 1 uM preincubated for 1 hr followed by 1.05 J/cm2 UV-A irradiation measured after 6 hrs by agarose gel electrophoresis; assay type: functional, cell-based
L1210 [14] = experiment: Induction of cytomorphological changes in mouse L1210 cells assessed as condensed chromatin at 0.5 uM preincubated for 1 hr followed by 1.05 J/cm2 UV-A irradiation measured after 6 to 24 hrs by Hoechst 33342 staining-based fluorescence microscopy; assay type: functional, cell-based
L1210 [15] = experiment: Induction of apoptosis in mouse L1210 cells assessed as decrease in Bcl2 level at 0.5 to 1 uM preincubated for 1 hr followed by 1.05 J/cm2 UV-A irradiation measured after 4 to 6 hrs by Western blot method; assay type: functional, cell-based
[16] = Drug uptake in lysosome of mouse L1210 cells at 2 uM preincubated with […] followed by compound exposure for 1 hr followed by 1.05 J/cm2 UV-A irradiation by LysoTracker staining-based flow cytometry; assay type: ADME, cell-based; settings: l1210, 1 h
L1210 [17] = experiment: Induction of cell cycle arrest in mouse L1210 cells assessed as accumulation at sub-G0 phase at 0.5 uM preincubated for 1 hr followed by 1.05 J/cm2 UV-A irradiation measured after 24 hrs by propidium iodide staining-based flow cytometry (reference value: 16.8 +/- 0.6%); assay type: functional
[18] = Induction of ROS generation measured after UV-A irradiation by spin trapping agent DMPO based EPR spectroscopy; assay type: physicochemical
L1210 [19] = experiment: Induction of apoptosis in mouse L1210 cells assessed as caspase 9 activation at 0.5 uM preincubated for 1 hr measured after 8 hrs by Western blot method in absence of light; assay type: cell-based; settings: l1210, 8 h
[20] = Octanol-water partition coefficient, logP of the compound; assay type: physicochemical
[21] = Drug uptake in lysosome of mouse L1210 cells at 2 uM preincubated with 10.5 nM bafilomycin A1 followed by compound exposure for 1 hr followed by 1.05 J/cm2 UV-A irradiation by LysoTracker staining-based flow cytometry; assay type: ADME, cell-based; settings: l1210, 1 h
L1210 [22] = experiment: Induction of cell cycle arrest in mouse L1210 cells assessed as accumulation at G1 phase at 0.5 and 1 uM preincubated for 1 hr followed by 1.05 J/cm2 UV-A irradiation measured after 24 hrs by propidium iodide staining-based flow cytometry (reference value: 16.8 +/- 0.6%); assay type: functional
L1210 [23] = experiment: Induction of necrosis in mouse L1210 cells at >= 1 uM preincubated for 1 hr followed by 1.05 J/cm2 UV-A irradiation; assay type: functional
L1210 [24] = experiment: […] in mouse L1210 cells at 1 uM preincubated for 1 hr followed by 1.05 J/cm2 UV-A irradiation measured after 24 hrs by lactate dehydrogenase leakage assay; assay type: cell-based; settings: l1210, 24 h
L1210 [25] = experiment: Induction of cell cycle arrest in mouse L1210 cells assessed as accumulation at sub-G0 phase at 0.5 uM preincubated for 1 hr measured after 4 hrs by propidium iodide staining-based flow cytometry in absence of light (reference value: 16.6 +/- 0.4%); settings: l1210, 4 h
L1210 [26] = experiment: Induction of cytomorphological changes in mouse L1210 cells at 0.5 uM preincubated for 1 hr measured after 6 to 24 hrs by Hoechst 33342 staining-based fluorescence microscopy in the absence of light; assay type: cell-based; settings: l1210, 0.5 µM
L1210 [27] = experiment: Induction of necrosis in mouse L1210 cells at 0.5 uM preincubated for 1 hr followed by 1.05 J/cm2 UV-A irradiation measured after 5 hrs by Annexin Red based flow cytometry; assay type: functional

- Drug uptake [4]: Not Active
- Drug uptake [5]: Not Active
- Drug uptake [16]: Not Active
- Activity [18]: Active
- logP [20]: 1.28
- Drug uptake [21]: Not Active
- Activity (L1210 [25]): 17.7%
SMILES: CCCNC(=S)Nc1ccc2cc3ccc(NC(=S)NCCC)cc3nc2c1.Cl
- Activity (L1210 [1]): inactive
- Activity (L1210 [2]): inactive
- IC50 [3]: 4400 nM
- Activity (L1210 [6]): Non-toxic
- Activity (L1210 [7]): Active
- Activity (L1210 [8]): Active
- Activity (L1210 [9]): inactive
- IC50 (L1210 [10]): 480 nM
- Activity (L1210 [11]): Active
- Activity (L1210 [12]): 22.5%
- Activity (L1210 [13]): Active
- Activity (L1210 [14]): Active
- Activity (L1210 [15]): Active
- Activity (L1210 [17]): 43.2%
- Activity (L1210 [19]): Non-toxic
- Activity (L1210 [22]): Active
- Activity (L1210 [23]): 95%
- Activity (L1210 [24]): Non-toxic
- Activity (L1210 [26]): Non-toxic
- Activity (L1210 [27]): 24%
